Test results as given in US20150057344A1, “PELTATIN FOR THE TREATMENT OF CHRONIC INFLAMMATORY DISORDERS” (priority 2012, published 2015).

Experiments:
[1] = system: PPARα; assay: hPPARa reporter bioassay (Gal4-hPPAR / UAS-luciferase) in HeLa cells; type: cell-based; settings: human HeLa cells, dose response
Excerpt: (§1) In more detail, when PPARs fix their ligands they are able to shuttle from cytoplasm to the nucleus of HeLa cells. Then, PPARs heterodimerize with co-receptors called Retinoid-X-Receptors (RXR). Heterodimeric transcription factors PPAR/RXR are responsible for PPARs-mediated transcriptional program. In this system, hPPARs are fused to Gal4. Gal4 is a yeast transcription activator which specifically binds a Gal4 responsive element so-called Upstream Activation Sequence (UAS)— this short section in a promoter region strongly activates gene transcription. Therefore, cotransfection of Gal4-hPPARs with UAS-luciferase constructs allows identification hPPARs agonists. Agonists will stimulate luciferase transcription resulting in the formation of a functional enzyme that converts substrate to detectable signal by a chemiluminescent reaction.
(§2) The assays detect binding of a ligand to the hPPAR of interest by directly measuring luciferase activity. When PPARs fixe their ligands they are able to shuttle from cytoplasm to the nucleus of HeLa cells. Then, PPARs heterodimerize with co-receptors called Retinoid-X-Receptors (RXR). […]
(§3) An edible plant fraction library was tested for PPARs agonist activity and toxicity. Then relevant plant fractions were further analyzed and bioactive(s) characterized and validated with the same hPPARa, hPPARg or hPPARd reporter bioassays. […]

[2] = system: PPARγ; assay: hPPARg reporter bioassay (Gal4-hPPAR / UAS-luciferase) in HeLa cells; type: cell-based; settings: human HeLa cells, dose response
Excerpt: as §1, §2, §3

[3] = system: HeLa cells; assay: Cellular toxicity, standard method, compared to untreated cells; type: cell-based, human; settings: up to highest dose used
Protocol: The AC50 (upper part of the insert) and the maximum % activation (lower part of the insert) are given. Cellular toxicity was also assessed with standard method compared to untreated cells and shown in % of toxicity.
An edible plant fraction library was tested for PPARs agonist activity and toxicity. Then relevant plant fractions were further analyzed and bioactive(s) characterized and validated with the same hPPARa, hPPARg or hPPARd reporter bioassays. The reporter bioassay we used in order to identify anti-inflammatory plant properties targeted activation of human PPARs in human HeLa cells (as described in the FIG. 1). All isolated bioactives were tested in a dose response manner in duplicate. Assays were repeated 3-4 times. Shown are mean values obtained. Therefore specificity (for all the three known human PPAR receptors namely PPARα, PPARd and PPARg) and efficacy (full agonist i.e. % maximal activity >100% or partial agonist i.e. % maximal activity <100%) were tested (FIG. 2-4).

Compound | agonistic activity on PPARα [1] | agonistic activity on PPARγ [2] | cellular toxicity (% of toxicity) ([3]; FIG. 2, alongside PPARα activation dose-response) | cellular toxicity (% of toxicity) ([3]; FIG. 3, alongside PPARg activation dose-response) | cellular toxicity (% of toxicity) ([3]; FIG. 4, alongside PPARd activation dose-response)
COc1cc([C@@H]2c3cc4c(cc3[C@H](O)[C@H]3COC(=O)[C@H]23)OCO4)cc(OC)c1OC [podophyllotoxin] | dual agonistic activity | dual agonistic activity |  |  | 
COc1cc([C@@H]2c3cc4c(c(O)c3C[C@H]3COC(=O)[C@@H]32)OCO4)cc(OC)c1OC [β-peltatin] | dual agonistic activity | dual agonistic activity | no toxicity was observed | no toxicity was observed | no toxicity was observed
